# Assay results taken from ChEMBL document CHEMBL1275428, “First case of emergence of atovaquone-proguanil resistance in Plasmodium falciparum during treatment in a traveler in Comoros” (Antimicrob Agents Chemother, 2008).
# pIC50: −log10 of the molar value.
# Test system: Plasmodium falciparum
# Test: not given
# Assay type: functional, organism-based
# Settings: 552 h
row,SMILES,pIC50
1,O=C1C(O)=C([C@H]2CC[C@H](c3ccc(Cl)cc3)CC2)C(=O)c2ccccc21 [ATOVAQUONE],6.41

# Test system: Plasmodium falciparum
# Test: microbe, parasite or virus in culture
# Settings: not given
row,SMILES,pIC50
1,CC1(C)N=C(N)N=C(N)N1c1ccc(Cl)cc1 [CYCLOGUANIL],6.60
2,CCNCc1cc(Nc2ccnc3cc(Cl)ccc23)ccc1O [DESETHYL AMODIAQUINE],7.52
3,CCCCN(CCCC)CC(O)c1cc(Cl)cc2c1-c1ccc(Cl)cc1/C2=C/c1ccc(Cl)cc1 (stereo unspecified) [LUMEFANTRINE],7.82
4,OC(c1cc(C(F)(F)F)nc2c(C(F)(F)F)cccc12)C1CCCCN1 (stereo unspecified) [MEFLOQUINE],7.47
5,CCc1nc(N)nc(N)c1-c1ccc(Cl)cc1 [PYRIMETHAMINE],5.60
